US5336485A, “Method for protecting animals against tacrine induced cytotoxic injury using sterol compounds” (priority 1993, dated 1994)
Structures can show the parent of a compound that is named as a salt.

Tested on: liver
Test: CCl4 induced hepatotoxicity in rats (serum AST/ALT)
Assay type: in vivo, rat
Settings: for protection against CCl4 hepatotoxicity (in words): rats, serum enzyme levels; for inhibition in vivo at 100 mg/kg: Rattus norvegicus, ip, 48 h, read-out: % Hepatoprotection
Experimental: In vivo experiments were performed to determine if alpha-TS administration protects the liver from chemical toxicity. The liver is the target organ for CCl4. CCl4 is a hepatotoxic agent that induces centrilobular liver necrosis through its metabolism to free radicals. Male Sprague-Dawley rats were given an intraperitoneal dose (100 mg/kg) of a tocopherol analog 24 hours prior to a CCl4 challenge (2.9g/kg given by oral garage). Forty eight hours after the challenge, the rats were sacrificed and the levels of aspartate aminotransferase (AST) and alanine aminotransferase (ALT) were measured.
As discussed above, SGOT levels provide a clinical assessment of hepatotoxicity (liver damage).
Succinate analogs were administered to male Sprague-Dawley rats 20 hours prior to a 1 g CCl4 /kg body weight oral challenge and the AST and ALT serum enzyme levels were measured 48 hours after the challenge.
Similar to the experiments were described above, the ionizable congeners were administered to Sprague-Dawley rats by i.p. injection of a 100 mg ionizable congener/kg body weight dose 20 hours prior to oral administration of a 1 g/kg dose of CCl4, and the AST and ALT levels were measured 48 hours after the CCl4 challenge.

[1] = 100 mg/kg ip, 48 h after 1 g/kg CCl4 (Table 31)
[2] = 100 mg/kg ip, 48 h after 1 g/kg CCl4 (Table 33)
[3] = 100 mg/kg ip, PEG 400 vehicle, 48 h after 1 g/kg CCl4 (Table 34)
[4] = 100 mg/kg ip, peanut oil vehicle, 48 h after 1 g/kg CCl4 (Table 39)
[5] = 100 mg/kg ip, 48 h after 1 g/kg CCl4 (Table 37)
[6] = 20 h prior, 48 h after 1 g/kg CCl4 (Table 36)
[7] = 100 mg/kg ip, 48 h after 1 g/kg CCl4 (Table 38)
[8] = 100 mg/kg ip, 48 h after 1 g/kg CCl4 (Table 40)
[9] = 100 mg/kg ip, 48 h after 1 g/kg CCl4 (Table 42)

CC(=O)O[C@H]1CC[C@@]2(C)C(=CC[C@H]3[C@@H]4CC[C@H]([C@H](C)CCCC(C)C)[C@@]4(C)CC[C@@H]32)C1 [Cholesterol acetate, reference compound]
ALT [1]: 0.96 ± 0.32 10^3 units/L | AST [1]: 3.06 ± 1.06 10^3 units/L | protection against CCl4 hepatotoxicity (in words): provided no protection

CC(C)CCC[C@@H](C)[C@H]1CC[C@H]2[C@@H]3CC=C4C[C@@H](OS(=O)(=O)O)CC[C@]4(C)[C@H]3CC[C@]12C [Cholesteryl 3-sulfate, sodium salt]
ALT [2]: 0.240 ± .133 10^3 units/L | AST [2]: 0.86 ± 0.35 10^3 units/L | inhibition in vivo at 100 mg/kg: 90% | protection against CCl4 hepatotoxicity (in words): potent cytoprotective agents in vivo

CC(C)CCC[C@@H](C)[C@H]1CC[C@H]2[C@@H]3CC=C4C[C@@H](OC(=O)c5ccccc5C(=O)O)CC[C@]4(C)[C@H]3CC[C@]12C [Cholesteryl hydrogen phthalate]
ALT [3]: 0.06 ± 0.03 10^3 units/L | AST [3]: 0.30 ± 0.12 10^3 units/L | inhibition in vivo at 100 mg/kg: 100% | protection against CCl4 hepatotoxicity (in words): potent cytoprotective agents in vivo

C[C@]12CC[C@H](OC(=O)CCC(=O)O)CC1=CC[C@@H]1[C@@H]2CC[C@]2(C)C(=O)CC[C@@H]12 [Dehydroepiandosterone 3-succinate]
ALT [4]: 3.89 ± 1.77 10^3 units/L | AST [4]: 10.42 ± 3.36 10^3 units/L | inhibition in vivo at 100 mg/kg: 0%

C[C@]12CC[C@H](OS(=O)(=O)O)CC1=CC[C@@H]1[C@@H]2CC[C@]2(C)C(=O)CC[C@@H]12 [Dehydroepiandosterone 3-sulfate]
ALT [3]: 3.89 ± 0.81 10^3 units/L | AST [3]: 13.85 ± 0.37 10^3 units/L | inhibition in vivo at 100 mg/kg: 4%

CC(C)CCC[C@@H](C)[C@H]1CC[C@H]2[C@@H]3CC[C@H]4C[C@@H](OC(=O)CCC(=O)O)CC[C@]4(C)[C@H]3CC[C@]12C [Dihydrocholesterol succinate, tris salt]
ALT [5]: 0.09 ± 0.03 10^3 units/L | AST [5]: 0.19 ± 0.05 10^3 units/L | inhibition in vivo at 100 mg/kg: 100%

CC(C)CCC[C@@H](C)[C@H]1CC[C@H]2[C@@H]3CC[C@H]4C[C@@H](OC(=O)CCC(=O)O)CC[C@]4(C)[C@H]3CC[C@]12C [Dihydrocholesterol succinate]
ALT [6]: 0.39 ± 0.40 10^3 units/L | AST [6]: 0.44 ± 0.29 10^3 units/L | protection against CCl4 hepatotoxicity (in words): complete protection against hepatotoxicity

CC(C)[C@@H](C)/C=C/[C@@H](C)[C@H]1CC[C@H]2C3=CC=C4C[C@@H](OC(=O)CCC(=O)O)CC[C@]4(C)[C@H]3CC[C@]12C [Ergosterol succinate, tris salt]
ALT [7]: 0.46 ± 0.25 10^3 units/L | AST [7]: 0.80 ± 0.28 10^3 units/L | inhibition in vivo at 100 mg/kg: 80% | protection against CCl4 hepatotoxicity (in words): protection against hepatotoxicity

CC(C)[C@@H](C)/C=C/[C@@H](C)[C@H]1CC[C@H]2C3=CC=C4C[C@@H](OS(=O)(=O)O)CC[C@]4(C)[C@H]3CC[C@]12C [Ergosterol sulfate, potassium salt]
ALT [7]: 0.28 ± 0.37 10^3 units/L | AST [7]: 0.58 ± 0.53 10^3 units/L | inhibition in vivo at 100 mg/kg: 86% | protection against CCl4 hepatotoxicity (in words): protection against hepatotoxicity

CC(C)[C@@H](C)/C=C/[C@@H](C)[C@H]1CC[C@H]2C3=CC=C4C[C@@H](O)CC[C@]4(C)[C@H]3CC[C@]12C [Ergosterol, reference compound]
ALT [7]: 0.93 ± 0.48 10^3 units/L | AST [7]: 1.73 ± 0.58 10^3 units/L | ALT [4]: 0.63 ± 0.45 10^3 units/L | AST [4]: 1.90 ± 0.73 10^3 units/L | protection against CCl4 hepatotoxicity (in words): cytoprotection from toxic CCl4 insults

C[C@]12CC[C@@H]3c4ccc(OC(=O)CCC(=O)O)cc4CC[C@H]3[C@@H]1CCC2=O [Estrone 3-Succinate]
ALT [8]: 0.51 ± 0.56 10^3 units/L | AST [8]: 1.71 ± 1.00 10^3 units/L | ALT [9]: 0.32 ± 0.12 10^3 units/L | AST [9]: 0.70 ± 0.20 10^3 units/L | protection against CCl4 hepatotoxicity (in words): slight cytoprotection

CC(=O)Oc1ccc2c(c1)CCC1C2CC[C@]2(C)C(=O)CCC12 (stereo partly shown) [Estrone Acetate, reference compound]
ALT [9]: 0.18 ± 0.08 10^3 units/L | AST [9]: 0.53 ± 0.24 10^3 units/L
